Measured values taken from patent US10093629B2, “Heterocyclic compounds and their use as retinoid-related orphan receptor (ROR) gamma-T inhibitors” (Takeda Pharmaceutical Company Limited, priority 2014, dated 2018).

Legend:
[1] = tested on: IL-23-induced mouse psoriasis model; assay: IL-23-induced mouse psoriasis model; assay type: in vivo; details: Balb/c mice, versus the negative control group; for percent inhibition of IL-17A expression: ear tissue
Protocol: Effect in an IL-23-Induced Mouse Psoriasis Model
Mouse IL-23 (500 ng/15 μL, R&D) or PBS (15 μL, negative control group) was administered intradermally in the ear of Balb/c mice (Charles River Japan, male, 7 weeks old) 5 times every other days. Seven hr after IL-23 administration at 8 days after the initial administration (final administration), the mice were anesthetized with isoflurane, and ear thickness was measured with calipers. After the ear thickness was measured, the ear was resected, tissue 8 mm in diameter was punched from an area centering on the IL-23 injection site, and the tissue was weighed. The punched ear tissue was cut in half, and one half was immersion-fixed in 10% neutral buffer formalin solution for use in histopathological evaluation. The other half was immersed in RNAlater (QIAGEN) for at least 18 hr for use in an evaluation of the IL-17A mRNA expression level. The test compound was suspended in 0.5% methylcellulose and administered orally twice daily on consecutive days from 30 min before the initial IL-23 administration to 30 min before the final IL-23 administration.
The change in ear thickness in this model was evaluated by calculating the difference in measured thickness between before IL-23 administration and 7 hr after the final IL-23 administration. In addition, the formalin-fixed tissue was embedded and sectioned, then stained with hematoxylin-eosin. The degree of acanthosis was then evaluated qualitatively by microscopy (classified with a score of 0 to 4). RNA extraction from the ear tissue and quantitative PCR were performed as follows. As described above, ear tissue treated with RNAlater (QIAGEN) was homogenized in 350 μL of RLT buffer (RNeasy mini kit, QIAGEN) and treated (55° C., 10 min) with Proteinase K (QIAGEN). Total RNA was then extracted according to the RNeasy mini kit protocol. The RNA thus obtained was reverse transcribed into cDNA using the High-Capacity RNA-to-cDNA kit (Applied Biosystems), and the expression of each gene was measured by real-time PCR (Viia7™, Applied Biosystems). The PCR buffer used was TaqMan Fast Advanced Master Mix (Applied Biosystems), and TaqMan Gene Expression Assays (Applied Biosystems) Mm00439618_m1 (IL-17A) and 4352341E (β-actin) were used to detect the genes. The IL-17A gene expression level was normalized to the β-actin gene expression level, and the percent inhibition of IL-17A gene expression with the test compound was then calculated.
The results (percent inhibition of ear thickness, acanthosis score and IL-17A gene expression with oral administration of the test compound) measured by the above-mentioned method are shown in Table 10.

RORγt [2] = biological target: T1, RORγt (Homo sapiens, UniProt P51449); assay: RORγt binding test using fluorescent-labeled synthetic ligand (TR-FRET); details: test compound 1 μM; read-out: binding inhibitory rate of fluorescent-labeled synthetic ligand to RORγt at test compound 1 μM
T1 sequence (P51449 1-497 isoform P51449-2): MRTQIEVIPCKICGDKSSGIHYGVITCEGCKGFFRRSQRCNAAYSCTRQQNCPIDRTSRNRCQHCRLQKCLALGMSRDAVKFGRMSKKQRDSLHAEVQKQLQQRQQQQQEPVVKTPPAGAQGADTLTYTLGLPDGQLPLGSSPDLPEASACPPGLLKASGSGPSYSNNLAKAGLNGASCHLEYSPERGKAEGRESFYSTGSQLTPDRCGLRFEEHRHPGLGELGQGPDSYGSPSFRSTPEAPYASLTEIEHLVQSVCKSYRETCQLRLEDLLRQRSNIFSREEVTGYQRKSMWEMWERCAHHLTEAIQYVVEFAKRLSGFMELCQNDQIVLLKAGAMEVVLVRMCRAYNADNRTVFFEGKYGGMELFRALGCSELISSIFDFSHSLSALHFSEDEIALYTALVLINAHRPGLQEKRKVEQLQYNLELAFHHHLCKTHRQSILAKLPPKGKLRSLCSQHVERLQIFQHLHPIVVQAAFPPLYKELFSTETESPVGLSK

RORγt [3] = biological target: T1, RORγt; assay: Cofactor recruitment test (Alpha Screen, biotinylated SRC-1 peptide); assay type: biochemical; details: test compound 1 μM; read-out: signal value inhibitory rate at test compound 1 μM
Protocol: Cofactor Recruitment Test
Cofactor recruitment test was performed by Alpha Screen (Histidine Detection Kit, PerkinElmer) method. First, a test compound was diluted with an assay buffer (50 mM Tris-HCl (pH 7.5), 50 mM KCl, 1 mM DTT, 0.1% BSA) and added to a 384 well plate by 5 μL. […] The mixture was stood in a dark place for 1 hr, and the signal value was measured by Envision (PerkinElmer).

RORγt [4] = biological target: T1, RORγt; assay: Jurkat reporter test (human IL-17 ROR response element luciferase, RORγt vector); assay type: cell-based; details: Jurkat, test compound 3 μM; Jurkat cells; read-out: luminescence level inhibitory rate at test compound 3 μM
In short: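 Jurkat cells were electroporated (1350 V, 10 ms, 3 pulses) with reporter constructs, then cultured overnight with compound in RPMI containing 10% lipid-reduced FCS, 10 mM HEPES pH 7.5 and 5 μM lovastatin. Luciferase was quantified by Bright-Glo luminescence after 10 min at room temperature.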

[5] = tested on: IL-17 production in human blood; assay: Effect on IL-17 production in human blood; assay type: cell-based; details: 72 h; 10 μM test compound; human peripheral blood, IL-23 and Dynabeads stimulation, 3 days; read-out: percent inhibition at 10 μM (IL-17 production)
Protocol: Effect on IL-17 Production in Human Blood
The inhibitory effect of the test compound on IL-17 production in human blood was evaluated as follows. First, 150 μL of peripheral blood collected from healthy individuals using heparinized vacuum blood collection tubes was dispensed into each well of a 96-well plate (Corning), and 45 μL of RPMI 1640 medium (Gibco) containing 10% fetal bovine serum (FBS, Hyclone) and 30 μL of the test compound diluted with the medium were added to each well. The plate was then cultured for 30 min at 37° C. The cells were subsequently stimulated by adding 30 μL of 100 ng/mL human IL-23 (R&D) and 45 μL of Dynabeads Human (Invitrogen) to each well and culturing the plate for 3 days at 37° C. In wells without stimulation, 75 μL of RPMI 1640 medium containing 10% FBS was added instead of the IL-23 and Dynabeads solution. After culturing for 3 days, the culture supernatant was collected, and the amount of IL-17 in the supernatant was measured using an IL-17 ELISA kit (R&D).
The results (percent inhibition of IL-17 production with 10 μM of the test compound) measured by the above-mentioned method are shown in Table 8.

IL-17A gene expression = assay: Effect on IL-23-induced cytokine expression in mice; assay type: in vivo, mouse; details: 10 mg/kg oral, 30 min before and 8 hr after IL-23; ear of Balb/c mice; versus the negative control group
Protocol: Effect on IL-23-Induced Cytokine Expression in Mice
A mouse IL-23 solution (500 ng/10 μL, prepared by Takeda Pharmaceutical Company Limited) or PBS (10 μL, negative control group) was administered intradermally in the ear of Balb/c mice (Charles River Japan, male, 7 weeks old). Twenty-four hr after administration, the ear was resected under isoflurane anesthesia. The test compound was suspended in 0.5% methylcellulose and administered orally 30 min before and 8 hr after IL-23 administration.
RNA extraction from the ear tissue and quantitative PCR were performed as follows. Specifically, ear tissue 5 mm in diameter was punched from an area of the resected ear centering on the IL-23 injection site, and the tissue was immersed in RNAlater (QIAGEN) for at least 18 hr. The RNAlater-treated ear tissue was homogenized in 350 μL of RLT buffer (RNeasy mini kit, QIAGEN) and treated (55° C., 10 min) with Proteinase K (QIAGEN). Total RNA was then extracted according to the RNeasy mini kit protocol. The RNA thus obtained was then reverse transcribed into cDNA using the High-Capacity RNA-to-cDNA kit (Applied Biosystems), and the amount of each gene expressions was measured by real-time PCR (Viia7™, Applied Biosystems). The PCR buffer used was TaqMan Fast Advanced Master Mix (Applied Biosystems), and TaqMan Gene Expression Assays (Applied Biosystems) Mm00439618_m1 (IL-17A) and 4352341E (β-actin) were used for each gene detection. The IL-17A gene expression level was normalized to the β-actin gene expression level, and the percent inhibition of IL-17A gene expression with the test compound was then calculated.
The results (percent inhibition of IL-17A gene expression with oral administration of the test compound) measured by the above-mentioned method are shown in Table 9.

inhibition at 1 µM (RORγt [2])	inhibition at 1 µM (RORγt [3])	inhibition at 3 µM (RORγt [4])	SMILES	percent inhibition of acanthosis score ([1]; 10 mg/kg oral twice daily)	percent inhibition of ear thickness ([1]; 10 mg/kg oral twice daily)	percent inhibition of IL-17A expression ([1]; 10 mg/kg oral twice daily)	inhibition at 10 µM [5]	percent inhibition of acanthosis score ([1]; 1 mg/kg oral twice daily)	percent inhibition of ear thickness ([1]; 1 mg/kg oral twice daily)	percent inhibition of IL-17A expression ([1]; 1 mg/kg oral twice daily)	percent inhibition of IL-17A gene expression (IL-17A gene expression)
102%	54%	97%	COc1ccc2c(n1)CCN(C(=O)[C@H]1C[C@@H]1CC(=O)O)[C@H]2C(=O)Nc1cc(F)c2c(c1)CCC2(C)C [Example 6, ((1R,2S)-2-(((5R)-5-((7-fluoro-1,1-dimethyl-2,3-dihydro-1H-inden-5-yl)carbamoyl)-2-methoxy-7,8-dihydro-1,6-naphthyridin-6(5H)-yl)carbonyl)cyclopropyl)acetic acid]	39%	64%	111%	86.6%	–	–	–	–
–	–	–	COc1ccc2c(n1)CCN(C(=O)[C@H]1C[C@@H](C(=O)O)C1)[C@H]2C(=O)Nc1cc(F)c2c(c1)CCC2(C)C [Example 10, cis-3-(((5R)-5-((7-fluoro-1,1-dimethyl-2,3-dihydro-1H-inden-5-yl)carbamoyl)-2-methoxy-7,8-dihydro-1,6-naphthyridin-6(5H)-yl)carbonyl)cyclobutanecarboxylic acid]	–	–	–	89.7%	47%	52%	91%	87%
101%	82%	99%	COCc1ccc2c(c1)CCN(C(=O)[C@H]1C[C@@H](CC(=O)O)C1)[C@H]2C(=O)Nc1cc(F)c2c(c1)CCC2(C)C [Example 19, (cis-3-(((1R)-1-((7-fluoro-1,1-dimethyl-2,3-dihydro-1H-inden-5-yl)carbamoyl)-6-(methoxymethyl)-3,4-dihydroisoquinolin-2(1H)-yl)carbonyl)cyclobutyl)acetic acid]	29%	40%	94%	94.1%	–	–	–	–
